Data from ChEMBL document CHEMBL1909046, “DrugMatrix in vitro pharmacology data”.

What was measured:
[1] = molecular target: Acetylcholinesterase (Homo sapiens, UniProt P22303); assay: DRUGMATRIX: Acetylcholinesterase enzyme inhibition (substrate: acetylthiocholine); assay type: cell-based, HEK293; conditions: Not Active = under 50% inhibition at 10 µM
[2] = molecular target: Sigma non-opioid intracellular receptor 1 (Homo sapiens, UniProt Q99720); assay: DRUGMATRIX: Sigma1 radioligand binding (ligand: [3H] Haloperidol); assay type: cell membranes, Jurkat, Membrane; conditions: Not Active = under 50% inhibition at 10 µM
[3] = molecular target: Cytochrome P450 2C19 (Homo sapiens, UniProt P33261); conditions: bti-tn-5b1-4; further: in other assays of this panel Not Active means under 50% inhibition at 10 µM
[4] = molecular target: Tyrosine-protein kinase Lck (Homo sapiens, UniProt P06239); assay: DRUGMATRIX: Protein Tyrosine Kinase, LCK enzyme inhibition (substrate: Poly(Glu:Tyr)); assay type: cell-based, Insect cells; conditions: insect cells; Not Active = under 50% inhibition at 10 µM
[5] = molecular target: T1, Calcitonin receptor (Homo sapiens, UniProt P30988); assay type: cell membranes, Membrane; conditions: t47d; further: in other assays of this panel Not Active means under 50% inhibition at 10 µM
T1 sequence (P30988 whole entry): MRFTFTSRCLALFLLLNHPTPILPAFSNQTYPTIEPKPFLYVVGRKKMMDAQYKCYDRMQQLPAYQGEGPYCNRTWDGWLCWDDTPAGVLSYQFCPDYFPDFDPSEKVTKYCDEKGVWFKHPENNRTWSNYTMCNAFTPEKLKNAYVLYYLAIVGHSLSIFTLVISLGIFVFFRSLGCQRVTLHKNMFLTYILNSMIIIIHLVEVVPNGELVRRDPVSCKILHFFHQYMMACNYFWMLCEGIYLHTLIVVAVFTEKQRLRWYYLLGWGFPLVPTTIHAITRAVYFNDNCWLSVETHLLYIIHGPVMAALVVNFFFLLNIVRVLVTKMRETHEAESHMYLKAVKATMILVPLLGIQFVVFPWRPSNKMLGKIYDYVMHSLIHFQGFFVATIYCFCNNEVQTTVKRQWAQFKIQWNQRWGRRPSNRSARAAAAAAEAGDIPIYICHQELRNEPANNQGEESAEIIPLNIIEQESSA

[6] = molecular target: Sodium-dependent dopamine transporter (Homo sapiens, UniProt Q01959); assay: DRUGMATRIX: Dopamine Transporter radioligand binding (ligand: [125I] RTI-55); assay type: cell membranes, CHO-K1, Membrane; conditions: cho-k1; Not Active = under 50% inhibition at 10 µM
[7] = molecular target: Nitric oxide synthase 1 (Rattus norvegicus, UniProt P29476); assay type: tissue-based, Cerebellum; further: in other assays of this panel Not Active means under 50% inhibition at 10 µM
[8] = molecular target: T2, Amine oxidase [flavin-containing] A (Homo sapiens, UniProt P21397); assay: DRUGMATRIX: Monoamine Oxidase MAO-A enzyme inhibition (substrate: Kynuramine); design: species or system BTI-TN-5B1-4; conditions: bti-tn-5b1-4; Not Active = under 50% inhibition at 10 µM
T2 sequence (P21397 whole entry): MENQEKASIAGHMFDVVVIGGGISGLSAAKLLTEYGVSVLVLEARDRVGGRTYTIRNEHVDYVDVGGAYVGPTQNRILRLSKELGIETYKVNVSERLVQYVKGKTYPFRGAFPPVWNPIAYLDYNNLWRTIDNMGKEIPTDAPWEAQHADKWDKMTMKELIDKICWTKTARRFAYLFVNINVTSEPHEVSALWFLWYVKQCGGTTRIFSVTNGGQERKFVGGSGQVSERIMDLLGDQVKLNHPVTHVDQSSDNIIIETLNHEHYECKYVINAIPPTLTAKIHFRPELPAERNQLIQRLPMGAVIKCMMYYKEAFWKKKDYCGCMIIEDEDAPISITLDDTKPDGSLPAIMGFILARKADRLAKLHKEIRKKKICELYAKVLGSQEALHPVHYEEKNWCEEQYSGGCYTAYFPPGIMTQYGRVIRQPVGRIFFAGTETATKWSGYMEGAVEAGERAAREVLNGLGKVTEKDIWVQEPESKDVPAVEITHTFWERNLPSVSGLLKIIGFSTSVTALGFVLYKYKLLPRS

[9] = DRUGMATRIX: Platelet-Derived Growth Factor (PDGF) radioligand binding (ligand: [125I] PDGF); assay type: cell-based; conditions: nih3t3; Not Active = under 50% inhibition at 10 µM
[10] = DRUGMATRIX: Glutamate, NMDA, Phencyclidine radioligand binding (ligand: [3H] TCP); assay type: cell membranes, Rattus norvegicus, Wistar, Cerebral cortex, Membrane; conditions: Not Active = under 50% inhibition at 10 µM

Sigma non-opioid intracellular receptor 1, sequence (Q99720 whole entry): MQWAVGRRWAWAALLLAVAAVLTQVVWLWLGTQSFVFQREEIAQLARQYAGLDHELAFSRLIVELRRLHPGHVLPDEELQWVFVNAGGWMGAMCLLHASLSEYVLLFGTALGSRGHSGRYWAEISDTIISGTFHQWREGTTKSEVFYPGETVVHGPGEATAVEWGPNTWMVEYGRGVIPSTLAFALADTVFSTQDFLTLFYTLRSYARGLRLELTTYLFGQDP
Tyrosine-protein kinase Lck, sequence (P06239 whole entry): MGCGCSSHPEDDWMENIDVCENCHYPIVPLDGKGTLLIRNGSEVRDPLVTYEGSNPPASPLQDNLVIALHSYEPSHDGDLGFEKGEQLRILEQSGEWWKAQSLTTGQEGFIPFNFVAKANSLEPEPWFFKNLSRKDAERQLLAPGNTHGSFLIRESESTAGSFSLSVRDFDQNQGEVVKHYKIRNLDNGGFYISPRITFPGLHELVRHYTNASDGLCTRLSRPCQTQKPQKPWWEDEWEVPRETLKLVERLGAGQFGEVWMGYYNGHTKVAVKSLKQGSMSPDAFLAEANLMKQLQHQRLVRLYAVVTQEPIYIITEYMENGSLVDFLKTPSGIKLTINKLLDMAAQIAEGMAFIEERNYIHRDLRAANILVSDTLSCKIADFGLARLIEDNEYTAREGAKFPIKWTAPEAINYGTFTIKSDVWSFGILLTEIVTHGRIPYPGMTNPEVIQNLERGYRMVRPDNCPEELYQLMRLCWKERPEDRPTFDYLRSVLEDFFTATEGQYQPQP
Sodium-dependent dopamine transporter, sequence (Q01959 whole entry): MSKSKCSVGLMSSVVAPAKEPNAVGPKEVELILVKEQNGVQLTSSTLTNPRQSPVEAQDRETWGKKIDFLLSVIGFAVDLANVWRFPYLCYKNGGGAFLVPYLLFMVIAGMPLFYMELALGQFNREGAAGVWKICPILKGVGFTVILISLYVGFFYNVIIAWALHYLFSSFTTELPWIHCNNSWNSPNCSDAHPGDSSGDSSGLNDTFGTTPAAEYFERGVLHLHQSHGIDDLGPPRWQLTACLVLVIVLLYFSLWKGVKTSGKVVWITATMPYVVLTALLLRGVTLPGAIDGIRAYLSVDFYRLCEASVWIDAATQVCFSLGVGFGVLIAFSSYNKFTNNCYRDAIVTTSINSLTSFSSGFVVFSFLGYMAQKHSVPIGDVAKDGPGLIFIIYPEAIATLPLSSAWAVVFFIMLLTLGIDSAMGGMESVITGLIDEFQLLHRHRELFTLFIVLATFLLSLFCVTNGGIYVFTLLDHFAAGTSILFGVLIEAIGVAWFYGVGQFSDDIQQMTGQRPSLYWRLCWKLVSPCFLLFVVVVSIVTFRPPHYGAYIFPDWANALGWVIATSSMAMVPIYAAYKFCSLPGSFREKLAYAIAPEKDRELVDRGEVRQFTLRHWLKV
Nitric oxide synthase 1, sequence (P29476 whole entry): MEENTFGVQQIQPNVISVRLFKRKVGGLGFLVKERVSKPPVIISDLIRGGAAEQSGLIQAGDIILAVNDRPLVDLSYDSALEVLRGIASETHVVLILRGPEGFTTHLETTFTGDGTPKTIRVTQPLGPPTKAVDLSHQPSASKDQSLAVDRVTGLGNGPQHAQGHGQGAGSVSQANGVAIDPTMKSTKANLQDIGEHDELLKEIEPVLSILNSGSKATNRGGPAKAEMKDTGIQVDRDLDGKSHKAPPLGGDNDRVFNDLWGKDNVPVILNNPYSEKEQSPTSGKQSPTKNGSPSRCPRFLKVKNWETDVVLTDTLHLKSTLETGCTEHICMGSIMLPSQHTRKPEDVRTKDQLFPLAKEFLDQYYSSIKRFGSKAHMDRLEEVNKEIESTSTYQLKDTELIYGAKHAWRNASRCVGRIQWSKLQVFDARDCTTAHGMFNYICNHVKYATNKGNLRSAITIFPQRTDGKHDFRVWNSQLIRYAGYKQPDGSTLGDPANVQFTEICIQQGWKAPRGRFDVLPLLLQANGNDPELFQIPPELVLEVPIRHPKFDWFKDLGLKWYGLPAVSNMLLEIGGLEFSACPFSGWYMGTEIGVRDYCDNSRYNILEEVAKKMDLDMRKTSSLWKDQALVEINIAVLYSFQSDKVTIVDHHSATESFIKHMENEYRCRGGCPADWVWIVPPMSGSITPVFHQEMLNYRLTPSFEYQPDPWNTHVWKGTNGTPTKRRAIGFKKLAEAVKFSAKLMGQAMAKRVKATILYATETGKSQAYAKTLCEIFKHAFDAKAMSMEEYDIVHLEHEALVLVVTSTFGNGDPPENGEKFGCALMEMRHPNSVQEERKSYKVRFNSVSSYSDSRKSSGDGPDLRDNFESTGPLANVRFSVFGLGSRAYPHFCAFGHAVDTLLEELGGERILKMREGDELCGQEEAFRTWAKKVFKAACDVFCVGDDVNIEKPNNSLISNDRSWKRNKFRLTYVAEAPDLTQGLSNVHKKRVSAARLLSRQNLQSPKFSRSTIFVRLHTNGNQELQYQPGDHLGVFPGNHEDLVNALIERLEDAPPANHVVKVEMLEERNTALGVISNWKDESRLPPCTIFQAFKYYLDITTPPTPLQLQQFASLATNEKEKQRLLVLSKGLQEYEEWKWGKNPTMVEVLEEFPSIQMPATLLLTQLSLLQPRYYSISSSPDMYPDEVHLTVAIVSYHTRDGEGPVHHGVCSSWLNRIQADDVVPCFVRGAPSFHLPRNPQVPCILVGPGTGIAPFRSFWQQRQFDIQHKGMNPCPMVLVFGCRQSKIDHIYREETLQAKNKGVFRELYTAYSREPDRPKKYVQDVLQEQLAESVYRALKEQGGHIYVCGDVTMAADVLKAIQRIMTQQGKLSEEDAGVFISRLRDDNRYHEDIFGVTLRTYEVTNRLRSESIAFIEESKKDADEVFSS
Acetylcholinesterase, sequence (P22303 whole entry): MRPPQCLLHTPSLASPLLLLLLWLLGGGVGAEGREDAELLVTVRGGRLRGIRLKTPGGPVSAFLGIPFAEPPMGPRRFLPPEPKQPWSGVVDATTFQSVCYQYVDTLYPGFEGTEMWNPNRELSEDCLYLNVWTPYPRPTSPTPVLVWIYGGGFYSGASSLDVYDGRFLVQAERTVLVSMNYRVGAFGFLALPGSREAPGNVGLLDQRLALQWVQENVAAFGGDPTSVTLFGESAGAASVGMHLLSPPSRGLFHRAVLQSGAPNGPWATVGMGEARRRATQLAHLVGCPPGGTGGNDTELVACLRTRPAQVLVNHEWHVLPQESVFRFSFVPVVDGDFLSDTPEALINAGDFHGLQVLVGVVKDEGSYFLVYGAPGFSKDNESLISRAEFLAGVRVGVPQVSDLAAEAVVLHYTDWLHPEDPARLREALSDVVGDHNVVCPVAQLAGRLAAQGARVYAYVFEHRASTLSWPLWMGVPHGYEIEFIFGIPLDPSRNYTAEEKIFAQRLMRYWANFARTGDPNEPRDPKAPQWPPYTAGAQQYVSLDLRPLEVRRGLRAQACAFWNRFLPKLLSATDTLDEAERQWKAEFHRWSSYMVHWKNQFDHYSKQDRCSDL
Cytochrome P450 2C19, sequence (P33261 whole entry): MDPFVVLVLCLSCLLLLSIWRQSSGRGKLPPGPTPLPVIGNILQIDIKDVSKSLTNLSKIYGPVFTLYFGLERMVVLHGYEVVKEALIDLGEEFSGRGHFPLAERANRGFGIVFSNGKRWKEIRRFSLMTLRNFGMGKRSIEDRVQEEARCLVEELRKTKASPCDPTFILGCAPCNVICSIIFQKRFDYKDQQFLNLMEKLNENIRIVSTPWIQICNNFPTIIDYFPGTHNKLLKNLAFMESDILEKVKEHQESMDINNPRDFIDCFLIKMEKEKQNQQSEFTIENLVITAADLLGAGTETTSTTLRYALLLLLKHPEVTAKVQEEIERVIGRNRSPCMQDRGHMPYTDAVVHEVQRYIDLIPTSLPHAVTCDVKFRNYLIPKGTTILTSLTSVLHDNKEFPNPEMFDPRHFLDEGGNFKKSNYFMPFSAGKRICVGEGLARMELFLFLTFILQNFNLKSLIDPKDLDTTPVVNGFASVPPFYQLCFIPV

| Compound | IC50 ([1]; hek293) | IC50 ([2]; jurkat) | IC50 [3] | Ki [3] | IC50 [4] | IC50 [5] | IC50 [6] | IC50 [7] | IC50 [8] | IC50 ([1]; read-out: IC50) | IC50 [9] | Ki [9] | IC50 [10] | Ki [10] | IC50 ([2]; read-out: IC50) | Ki ([2]; read-out: Ki) |
| --- | --- | --- | --- | --- | --- | --- | --- | --- | --- | --- | --- | --- | --- | --- | --- | --- |
| Clc1ccc2c(c1)C(N1CCNCC1)=Nc1ccccc1O2 [AMOXAPINE] | Not Active | Not Active | Not Active | Not Active | Not Active | Not Active | Not Active | Not Active | Not Active |  |  |  |  |  |  |  |
| COc1cc2c(c(OC)c1OC)-c1ccc(OC)c(=O)cc1[C@@H](NC(C)=O)CC2 [COLCHICINE] | Not Active | Not Active | Not Active | Not Active | Not Active | Not Active | Not Active | Not Active | Not Active |  |  |  |  |  |  |  |
| CC/C(=C(/CC)c1ccc(O)cc1)c1ccc(O)cc1 [DIETHYLSTILBESTROL] |  | Not Active | Not Active | Not Active | Not Active | Not Active |  | Not Active | Not Active | 25.6 µM |  |  |  |  |  |  |
| C=CCN1CC[C@]23c4c5ccc(O)c4O[C@H]2C(=O)CC[C@@]3(O)[C@H]1C5 [NALOXONE] | Not Active | Not Active |  |  | Not Active | Not Active | Not Active | Not Active | Not Active |  |  |  |  |  |  |  |
| COCCOC(=O)C1=C(C)NC(C)=C(C(=O)OC(C)C)C1c1cccc([N+](=O)[O-])c1 (stereo unspecified) [NIMODIPINE] | Not Active | Not Active |  |  | Not Active | Not Active | Not Active | Not Active | Not Active |  | Not Active | Not Active | Not Active | Not Active |  |  |
| CC(C)NCC(O)COc1cccc2ccccc12 (stereo unspecified) [PROPRANOLOL] | Not Active |  | Not Active | Not Active | Not Active | Not Active |  | Not Active | Not Active |  |  |  |  |  | 2.87 µM | 1.21 µM |
| O=C(c1ccc(OCCN2CCCCC2)cc1)c1c(-c2ccc(O)cc2)sc2cc(O)ccc12 [RALOXIFENE] |  |  |  |  | Not Active | Not Active |  | Not Active | Not Active | 0.4 µM | Not Active | Not Active | Not Active | Not Active |  |  |
| CC(C)c1nc(CN(C)C(=O)N[C@H](C(=O)N[C@@H](Cc2ccccc2)C[C@H](O)[C@H](Cc2ccccc2)NC(=O)OCc2cncs2)C(C)C)cs1 [RITONAVIR] | Not Active | Not Active |  |  | Not Active | Not Active | Not Active | Not Active | Not Active |  | Not Active | Not Active | Not Active | Not Active |  |  |
| CC(C)(C)c1ccc(C(O)CCCN2CCC(C(O)(c3ccccc3)c3ccccc3)CC2)cc1 (stereo unspecified) [TERFENADINE] | Not Active | Not Active | Not Active | Not Active | Not Active | Not Active |  | Not Active | Not Active |  | Not Active | Not Active | Not Active | Not Active |  |  |
| CC[C@]1(O)C[C@@H]2CN(CCc3c([nH]c4ccccc34)[C@@](C(=O)OC)(c3cc4c(cc3OC)N(C)[C@H]3[C@@](O)(C(=O)OC)[C@H](OC(C)=O)[C@]5(CC)C=CCN6CC[C@]43[C@@H]65)C2)C1 [VINBLASTINE] | Not Active | Not Active |  |  | Not Active | Not Active | Not Active | Not Active | Not Active |  | Not Active | Not Active | Not Active | Not Active |  |  |
| C[C@@H](N)[C@H]1CC[C@H](C(=O)Nc2ccncc2)CC1 [Y-27632] | Not Active | Not Active |  |  |  | Not Active | Not Active | Not Active | Not Active |  | Not Active | Not Active | Not Active | Not Active |  |  |
